Measured values: patent publication US20230357261A1, “ARYL HYDROCARBON RECEPTOR LIGANDS AND THEIR ANALOGUES FOR THE PREVENTION AND TREATMENT OF INFLAMMATORY DISORDERS” (The Johns Hopkins University, priority 2020, published 2023)
“Also recorded” adds a separate entry of the source.

Columns and labels:
[1] = system: AHR; assay: AHR activation in human ileal explant culture (Cyp1a1 qRT-PCR); assay type: cell-based; conditions: 200 μM I3C or 20 μM A18, 15 minutes pre-treatment then 6 hours
Source text: De-identified human ileal samples were collected via waiver of consent from the Office of Human Subjects Research Review Boards at Johns Hopkins University (IRB00094036), during surgery for NEC or at the time of stoma closure. For RNA isolation and qRT-PCR analysis, fresh samples were snapfrozen in liquid nitrogen immediately. For human explant culture, fresh ileum samples from NEC patients or patient undergoing stoma re-anastomosis were washed with sterile phosphate-buffered saline containing gentamycin (5 μg/mL), minced into 2- to 4-mm diameter pieces, and then cultured in Dulbecco's modified Eagle growth medium supplemented with 10% fetal bovine serum, 4 μg/mL human recombinant insulin and 100 μg/mL Primocin. […]
Total RNA was isolated using the RNeasy mini kit (Qiagen) and complementary DNA was synthesized from 0.5 μg RNA using QuantiTect Reverse Transcription kit (Qiagen) following the manufacturer's protocols. The mRNA quantification was performed on the Bio-Rad CFX96 Real-Time System (Bio-Rad) using iTaq™ universal SYBR® Green supermix (Bio-Rad) and the primers listed in Table 1. […] For microRNA isolation, freshly harvested, snap-frozen ileal tissue was subjected to total RNA isolation using the RNeasy plus universal mini kit (Qiagen) and miRNA was quantified using miScript PCR starter kit (Qiagen) following the manufacturer's protocols. […]

[2] = system: mouse NEC model; assay: Experimental NEC in newborn mice (Example 1); assay type: in vivo
[3] = system: AHR; assay: AHR activation in IEC-6 enterocytes (Cyp1a1 expression); assay type: cell-based, rat; conditions: exposed to amniotic fluid, breast milk and serum harvested from pregnant mice administered I3C vs control diet
Procedure: The intestinal epithelial cells line IEC-6 (ATCC CRL-1592) was stably transduced with lentiviral particles containing Cignal Lenti XRE Reporter (luc) (Qiagen). Cells were treated serially with individual chemicals contained within the Johns Hopkins Drug Library (JHDL), which contains a series of FDA-approved drugs, Chong et al., 2006, (kindly provided by Dr. Jun O. Liu, Johns Hopkins University) at 10 μM for 24 hours, and the luciferase activity was quantified using the SpectraMax M3 (Molecular Devices).
(§1) Total RNA was isolated using the RNeasy mini kit (Qiagen) and complementary DNA was synthesized from 0.5 μg RNA using QuantiTect Reverse Transcription kit (Qiagen) following the manufacturer's protocols. The mRNA quantification was performed on the Bio-Rad CFX96 Real-Time System (Bio-Rad) using iTaq™ universal SYBR® Green supermix (Bio-Rad) and the primers listed in Table 1. The relative mRNA expression levels were normalized against the expression of the housekeeping gene ribosomal protein lateral stalk subunit P0 (Rplp0). For microRNA isolation, freshly harvested, snap-frozen ileal tissue was subjected to total RNA isolation using the RNeasy plus universal mini kit (Qiagen) and miRNA was quantified using miScript PCR starter kit (Qiagen) following the manufacturer's protocols. The relative miRNA expression levels were normalized against the expression of housekeeping miRNA miR-191.

[4] = system: miR-146b, miR-223 and let-7i; assay: Tlr4 regulatory microRNAs in mouse ileum; assay type: in vivo; conditions: I3C 25 mg/kg body weight/day for 24 hours
Procedure: as §1

[5] = pups, maternal I3C during pregnancy

OCc1c[nH]c2ccccc12 [I3C, indole-3-carbinol]
Cyp1a1 expression in human intestinal explant cultures [1]: induced the expression of Cyp1a1
NEC severity ([2]; Ahr^ΔIEC mice, I3C 25 mg/kg/day during NEC induction): relatively scant protective effect
NEC severity ([2]; Ahr^Δlys mice, I3C 25 mg/kg/day during NEC induction): moderate protective effect; also recorded: protection against NEC development
NEC severity ([2]; Ahr^−/− mice, oral to pups during NEC induction: I3C 25 mg/kg/day, A18 300 mg/kg/day, or human breast milk 5% in formula): no protective effect
NEC severity ([2]; Il22^−/− mice, I3C 25 mg/kg/day for 4 days): reduced NEC severity
severity of experimental NEC in the pups ([2]; oral I3C to the mother during pregnancy, 25 mg/kg body weight/day): significantly reduced the severity of experimental NEC
expression of 116 in the intestinal epithelium (NEC) [2, 5]: reduced expression of 116
histological injury (terminal ileum, NEC) [2, 5]: reduced histological injury
intestinal epithelial apoptosis (TUNEL, NEC) [2, 5]: reduced intestinal epithelial apoptosis
NEC severity ([2]; wild-type mice, oral to pups during NEC induction: I3C 25 mg/kg/day, A18 300 mg/kg/day, or human breast milk 5% in formula): significantly reduced the severity of NEC; also recorded: protection against NEC development
Cyp1a1 expression in cultured IEC-6 enterocytes [3]: significantly increased the expression of Cyp1a1
expression in the ileum of microRNAs miR-146b, miR-223 and let-7i ([4]; Ahr^−/− mice): did not increase the expression of these microRNAs
expression in the ileum of microRNAs miR-146b, miR-223 and let-7i ([4]; wild type mice): significantly upregulated
